Laboratory results as given in US20240208992A1, “MACROCYCLES AS CFTR MODULATORS” (Idorsia Pharmaceuticals Ltd, priority 2021, published 2024).

Target: human F508del-CFTR (Homo sapiens, UniProt P13569, DEL508-508)
Test: F508del-CFTR cell surface expression (corrector activity), DiscoveRx ß-galactosidase complementation chemiluminescence assay in recombinant U2OS cell line;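 further: U2OS cells co-expressing ProLink-tagged F508del-CFTR and a membrane-anchored enzyme acceptor, where more surface CFTR restores β-galactosidase activity measured by chemiluminescence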
Conditions: for EC50: EC50, F508del-CFTR cell surface expression, U2OS cells, 16h compound incubation, geomean values; for Emax: U2OS, in relation to Emax of corrector lumacaftor (=100%), arithmetic mean values
Experimental: The method measures the effect of over-night compound incubation on F508del-CFTR cell surface expression in a recombinant U2OS cell line (DiscoveRx, #93-0987C3). This cell line is engineered to co-express (i) human F508del-CFTR tagged with a Prolink (PK=short ß-galactosidase fragment) and (ii) the remainder of the ß-galactosidase enzyme (Enzyme Acceptor; EA) localized to the plasma membrane. Incubation with compounds that increase PK-tagged F508del-CFTR at the plasma membrane will lead to complementation of the EA fragment to form a functional ß-galactosidase enzyme which is quantified by a chemiluminescence reaction.
The cells are incubated for 5h in the incubator before the addition of 5 μl/well of compound dilution series (5× working stocks in full medium). […] The cells are co-incubated with the compounds for 16h in the incubator at 37° C., 5% CO2. The next day, the cell plates are incubated for 2h at RT in the dark. […] Concentration-response curves are generated using compound-intrinsic maximal efficacy as upper plateau, and from these CRCs compound-intrinsic EC50 values are determined.
The calculated EC50 values may fluctuate depending on the daily assay performance. […] EC50 values from several measurements are given as geomean values. The calculated Emax values may fluctuate depending on the daily assay performance. […] Emax values from several measurements are given as arithmetic mean values.

Chain of human F508del-CFTR (P13569 with tags, fused parts or gaps DEL508-508): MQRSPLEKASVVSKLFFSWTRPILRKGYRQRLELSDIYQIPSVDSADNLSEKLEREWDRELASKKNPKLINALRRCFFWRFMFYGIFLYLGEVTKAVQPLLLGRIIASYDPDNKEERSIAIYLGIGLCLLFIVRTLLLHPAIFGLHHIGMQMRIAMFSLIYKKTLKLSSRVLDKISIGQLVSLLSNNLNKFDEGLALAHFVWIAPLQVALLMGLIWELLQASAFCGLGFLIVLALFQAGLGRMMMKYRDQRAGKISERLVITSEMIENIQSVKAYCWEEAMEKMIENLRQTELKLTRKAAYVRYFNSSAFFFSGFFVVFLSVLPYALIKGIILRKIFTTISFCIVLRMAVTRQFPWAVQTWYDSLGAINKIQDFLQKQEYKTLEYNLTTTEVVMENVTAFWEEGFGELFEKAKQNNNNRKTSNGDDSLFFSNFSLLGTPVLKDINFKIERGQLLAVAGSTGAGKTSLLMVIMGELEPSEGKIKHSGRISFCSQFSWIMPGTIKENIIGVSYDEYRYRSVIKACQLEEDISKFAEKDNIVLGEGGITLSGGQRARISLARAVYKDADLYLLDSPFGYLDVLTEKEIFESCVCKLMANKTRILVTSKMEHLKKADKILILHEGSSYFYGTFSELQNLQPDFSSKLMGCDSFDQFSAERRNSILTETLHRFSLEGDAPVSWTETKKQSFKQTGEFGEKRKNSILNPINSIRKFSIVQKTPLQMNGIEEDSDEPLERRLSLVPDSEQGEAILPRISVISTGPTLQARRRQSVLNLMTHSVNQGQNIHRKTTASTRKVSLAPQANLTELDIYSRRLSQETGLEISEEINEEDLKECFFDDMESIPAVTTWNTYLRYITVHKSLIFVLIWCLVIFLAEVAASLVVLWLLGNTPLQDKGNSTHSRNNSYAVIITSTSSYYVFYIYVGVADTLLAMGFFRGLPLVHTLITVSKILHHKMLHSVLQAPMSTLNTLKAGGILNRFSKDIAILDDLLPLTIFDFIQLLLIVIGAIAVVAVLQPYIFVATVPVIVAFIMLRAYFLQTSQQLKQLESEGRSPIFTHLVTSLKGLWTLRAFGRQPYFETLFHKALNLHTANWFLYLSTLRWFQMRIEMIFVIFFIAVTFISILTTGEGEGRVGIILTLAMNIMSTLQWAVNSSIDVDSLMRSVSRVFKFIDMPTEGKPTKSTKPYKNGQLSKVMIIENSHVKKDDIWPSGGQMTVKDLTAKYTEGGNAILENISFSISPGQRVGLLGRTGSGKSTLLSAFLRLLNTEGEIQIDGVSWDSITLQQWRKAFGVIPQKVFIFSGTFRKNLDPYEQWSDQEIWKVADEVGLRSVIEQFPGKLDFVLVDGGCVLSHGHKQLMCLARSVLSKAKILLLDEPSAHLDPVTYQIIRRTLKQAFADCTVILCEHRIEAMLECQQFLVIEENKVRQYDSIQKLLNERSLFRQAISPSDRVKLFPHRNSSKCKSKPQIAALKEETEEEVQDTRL

Row | SMILES | EC50 [nM] | Emax [%]
1 | COc1nccc2c1C(=O)N[C@H](C(=O)NCCc1nc(C3CC3)no1)CC(=O)N(C)[C@@H](CC(C)C)C(=O)N(C)[C@@H](COCc1ccccc1)C(=O)N[C@H](Cc1ccccc1)CO2 [Example 724, (3R,6RS,9S,13S)-3-benzyl-6-((benzyloxy)methyl)-N-(2-(3-cyclopropyl-1,2,4-oxadiazol-5-yl)ethyl)-9-isobutyl-16-methoxy-7,10-dimethyl-5,8,11,15-tetraoxo-2,3,4,5,6,7,8,9,10,11,12,13,14,15-tetradecahydropyrido[3,4-p][1]oxa[4,7,10,14]tetraazacycloheptadecine-13-carboxamide] | 93 | 345
2 | Cc1cc(CCNC(=O)[C@@H]2CC(=O)N(C)[C@@H](CC(C)C)C(=O)N3CCNC[C@@H]3C(=O)N[C@H](Cc3ccccc3)COc3ccc4ccccc4c3C(=O)N2)on1 [Example 725, (4aR,7R,18S,22S)-7-Benzyl-22-isobutyl-21-methyl-N-(2-(3-methylisoxazol-5-yl)ethyl)-5,16,20,23-tetraoxo-2,3,4,4a,5,6,7,8,16,17,18,19,20,21,22,23-hexadecahydro-1H-naphtho[1,2-p]pyrazino[2,1-f][1]oxa[4,7,10,14]tetraazacycloheptadecine-18-carboxamide] | 1370 | 200
3 | COc1cccc(CCNC(=O)[C@@H]2CC(=O)N(C)[C@@H](CC(C)C)C(=O)N3CCNC[C@@H]3C(=O)N[C@H](Cc3ccccc3)COc3ccc4ccccc4c3C(=O)N2)c1 [Example 726, (4aR,7R,18S,22S)-7-benzyl-22-isobutyl-N-(3-methoxyphenethyl)-21-methyl-5,16,20,23-tetraoxo-2,3,4,4a,5,6,7,8,16,17,18,19,20,21,22,23-hexadecahydro-1H-naphtho[1,2-p]pyrazino[2,1-f][1]oxa[4,7,10,14]tetraazacycloheptadecine-18-carboxamide] | 624 | 234
4 | Cc1cc(CCNC(=O)[C@@H]2CC(=O)N(C)[C@@H](CC(C)C)C(=O)N3CCNC[C@@H]3C(=O)N[C@H](Cc3ccccc3)COc3cnc4ccccc4c3C(=O)N2)on1 [Example 727, (9S,13S,19aR,22R)-22-benzyl-13-isobutyl-12-methyl-N-(2-(3-methylisoxazol-5-yl)ethyl)-7,11,14,20-tetraoxo-7,8,9,10,11,12,13,14,17,18,19,19a,20,21,22,23-hexadecahydro-16H-pyrazino[2′,1′:6,7][1]oxa[4,7,10,14]tetraazacycloheptadecino[17,16-c]quinoline-9-carboxamide] | 5050 | 138
5 | COc1cccc(CCNC(=O)[C@@H]2CC(=O)N(C)[C@@H](CC(C)C)C(=O)N3CCN(S(=O)(=O)c4ccccc4)C[C@@H]3C(=O)N[C@H](Cc3ccccc3)COc3ccc4ccccc4c3C(=O)N2)c1 [Example 729, (4aR,7R,18S,22S)-7-benzyl-22-isobutyl-N-(3-methoxyphenethyl)-21-methyl-5,16,20,23-tetraoxo-3-(phenylsulfonyl)-2,3,4,4a,5,6,7,8,16,17,18,19,20,21,22,23-hexadecahydro-1H-naphtho[1,2-p]pyrazino[2,1-f][1]oxa[4,7,10,14]tetraazacycloheptadecine-18-carboxamide] | 100 | 258
6 | COc1cccc(CCNC(=O)[C@@H]2CC(=O)N(C)[C@@H](CC(C)C)C(=O)N3CCN(S(=O)(=O)CCCN4CCOCC4)C[C@@H]3C(=O)N[C@H](Cc3ccccc3)COc3ccc4ccccc4c3C(=O)N2)c1 [Example 730, (4aR,7R,18S,22S)-7-benzyl-22-isobutyl-N-(3-methoxyphenethyl)-21-methyl-3-((3-morpholinopropyl)sulfonyl)-5,16,20,23-tetraoxo-2,3,4,4a,5,6,7,8,16,17,18,19,20,21,22,23-hexadecahydro-1H-naphtho[1,2-p]pyrazino[2,1-f][1]oxa[4,7,10,14]tetraazacycloheptadecine-18-carboxamide] | 593 | 248
7 | COc1cccc(CCNC(=O)[C@@H]2CC(=O)N(C)[C@@H](CC(C)C)C(=O)N3CCN(S(C)(=O)=O)C[C@@H]3C(=O)N[C@H](Cc3ccccc3)COc3ccc4ccccc4c3C(=O)N2)c1 [Example 731, (4aR,7R,18S,22S)-7-benzyl-22-isobutyl-N-(3-methoxyphenethyl)-21-methyl-3-(methylsulfonyl)-5,16,20,23-tetraoxo-2,3,4,4a,5,6,7,8,16,17,18,19,20,21,22,23-hexadecahydro-1H-naphtho[1,2-p]pyrazino[2,1-f][1]oxa[4,7,10,14]tetraazacycloheptadecine-18-carboxamide] | 381 | 248
8 | COc1cccc(CCNC(=O)[C@@H]2CC(=O)N(C)[C@@H](CC(C)C)C(=O)N3CCN(S(=O)(=O)c4cccc(OC(F)(F)F)c4)C[C@@H]3C(=O)N[C@H](Cc3ccccc3)COc3ccc4ccccc4c3C(=O)N2)c1 [Example 732, (4aR,7R,18S,22S)-7-benzyl-22-isobutyl-N-(3-methoxyphenethyl)-21-methyl-5,16,20,23-tetraoxo-3-((3-(trifluoromethoxy)phenyl)sulfonyl)-2,3,4,4a,5,6,7,8,16,17,18,19,20,21,22,23-hexadecahydro-1H-naphtho[1,2-p]pyrazino[2,1-f][1]oxa[4,7,10,14]tetraazacycloheptadecine-18-carboxamide] | 64 | 239
9 | COCCS(=O)(=O)N1CCN2C(=O)[C@H](CC(C)C)N(C)C(=O)C[C@@H](C(=O)NCCc3cccc(OC)c3)NC(=O)c3c(ccc4ccccc34)OC[C@@H](Cc3ccccc3)NC(=O)[C@H]2C1 [Example 733, (4aR,7R,18S,22S)-7-benzyl-22-isobutyl-3-((2-methoxyethyl)sulfonyl)-N-(3-methoxyphenethyl)-21-methyl-5,16,20,23-tetraoxo-2,3,4,4a,5,6,7,8,16,17,18,19,20,21,22,23-hexadecahydro-1H-naphtho[1,2-p]pyrazino[2,1-f][1]oxa[4,7,10,14]tetraazacycloheptadecine-18-carboxamide] | 349 | 235
10 | COc1cccc(CCNC(=O)[C@@H]2CC(=O)N(C)[C@@H](CC(C)C)C(=O)N3CCN(S(=O)(=O)C4CCOCC4)C[C@@H]3C(=O)N[C@H](Cc3ccccc3)COc3ccc4ccccc4c3C(=O)N2)c1 [Example 734, (4aR,7R,18S,22S)-7-benzyl-22-isobutyl-N-(3-methoxyphenethyl)-21-methyl-5,16,20,23-tetraoxo-3-((tetrahydro-2H-pyran-4-yl)sulfonyl)-2,3,4,4a,5,6,7,8,16,17,18,19,20,21,22,23-hexadecahydro-1H-naphtho[1,2-p]pyrazino[2,1-f][1]oxa[4,7,10,14]tetraazacycloheptadecine-18-carboxamide] | 299 | 325
11 | COc1cccc(CCNC(=O)[C@@H]2CC(=O)N(C)[C@@H](CC(C)C)C(=O)N3CCN(S(=O)(=O)CCN(C)C)C[C@@H]3C(=O)N[C@H](Cc3ccccc3)COc3ccc4ccccc4c3C(=O)N2)c1 [Example 735, (4aR,7R,18S,22S)-7-benzyl-3-((2-(dimethylamino)ethyl)sulfonyl)-22-isobutyl-N-(3-methoxyphenethyl)-21-methyl-5,16,20,23-tetraoxo-2,3,4,4a,5,6,7,8,16,17,18,19,20,21,22,23-hexadecahydro-1H-naphtho[1,2-p]pyrazino[2,1-f][1]oxa[4,7,10,14]tetraazacycloheptadecine-18-carboxamide] | 314 | 176
12 | COc1cccc(CCNC(=O)[C@@H]2CC(=O)N(C)[C@@H](CC(C)C)C(=O)N3CCN(S(=O)(=O)Cc4ccccc4)C[C@@H]3C(=O)N[C@H](Cc3ccccc3)COc3ccc4ccccc4c3C(=O)N2)c1 [Example 736, (4aR,7R,18S,22S)-7-benzyl-3-(benzylsulfonyl)-22-isobutyl-N-(3-methoxyphenethyl)-21-methyl-5,16,20,23-tetraoxo-2,3,4,4a,5,6,7,8,16,17,18,19,20,21,22,23-hexadecahydro-1H-naphtho[1,2-p]pyrazino[2,1-f][1]oxa[4,7,10,14]tetraazacycloheptadecine-18-carboxamide] | 153 | 286
13 | COc1cccc(CCNC(=O)[C@@H]2CC(=O)N(C)[C@@H](CC(C)C)C(=O)N3CCN(S(=O)(=O)c4ccc5oc(=O)[nH]c5c4)C[C@@H]3C(=O)N[C@H](Cc3ccccc3)COc3ccc4ccccc4c3C(=O)N2)c1 [Example 737, (4aR,7R,18S,22S)-7-benzyl-22-isobutyl-N-(3-methoxyphenethyl)-21-methyl-5,16,20,23-tetraoxo-3-((2-oxo-2,3-dihydrobenzo[d]oxazol-5-yl)sulfonyl)-2,3,4,4a,5,6,7,8,16,17,18,19,20,21,22,23-hexadecahydro-1H-naphtho[1,2-p]pyrazino[2,1-f][1]oxa[4,7,10,14]tetraazacycloheptadecine-18-carboxamide] | 665 | 298
14 | COc1cccc(CCNC(=O)[C@@H]2CC(=O)N(C)[C@@H](CC(C)C)C(=O)N3CCN(S(=O)(=O)Cc4cccc5cccnc45)C[C@@H]3C(=O)N[C@H](Cc3ccccc3)COc3ccc4ccccc4c3C(=O)N2)c1 [Example 738, (4aR,7R,18S,22S)-7-benzyl-22-isobutyl-N-(3-methoxyphenethyl)-21-methyl-5,16,20,23-tetraoxo-3-((quinolin-8-ylmethyl)sulfonyl)-2,3,4,4a,5,6,7,8,16,17,18,19,20,21,22,23-hexadecahydro-1H-naphtho[1,2-p]pyrazino[2,1-f][1]oxa[4,7,10,14]tetraazacycloheptadecine-18-carboxamide] | 110 | 256
15 | COc1cccc(CCNC(=O)[C@@H]2CC(=O)N(C)[C@@H](CC(C)C)C(=O)N3CCN(S(=O)(=O)c4cccc(OC)c4)C[C@@H]3C(=O)N[C@H](Cc3ccccc3)COc3ccc4ccccc4c3C(=O)N2)c1 [Example 739, (4aR,7R,18S,22S)-7-benzyl-22-isobutyl-N-(3-methoxyphenethyl)-3-((3-methoxyphenyl)sulfonyl)-21-methyl-5,16,20,23-tetraoxo-2,3,4,4a,5,6,7,8,16,17,18,19,20,21,22,23-hexadecahydro-1H-naphtho[1,2-p]pyrazino[2,1-f][1]oxa[4,7,10,14]tetraazacycloheptadecine-18-carboxamide] | 101 | 297
